48 compounds from US20110152243A1, “NOVEL THIENOPYRROLE COMPOUNDS” (ABBOTT LABORATORIES, priority 2009, published 2011) can be followed below.

The structures appear in SMILES notation.

Chain of PKCθ (Q04759 whole entry): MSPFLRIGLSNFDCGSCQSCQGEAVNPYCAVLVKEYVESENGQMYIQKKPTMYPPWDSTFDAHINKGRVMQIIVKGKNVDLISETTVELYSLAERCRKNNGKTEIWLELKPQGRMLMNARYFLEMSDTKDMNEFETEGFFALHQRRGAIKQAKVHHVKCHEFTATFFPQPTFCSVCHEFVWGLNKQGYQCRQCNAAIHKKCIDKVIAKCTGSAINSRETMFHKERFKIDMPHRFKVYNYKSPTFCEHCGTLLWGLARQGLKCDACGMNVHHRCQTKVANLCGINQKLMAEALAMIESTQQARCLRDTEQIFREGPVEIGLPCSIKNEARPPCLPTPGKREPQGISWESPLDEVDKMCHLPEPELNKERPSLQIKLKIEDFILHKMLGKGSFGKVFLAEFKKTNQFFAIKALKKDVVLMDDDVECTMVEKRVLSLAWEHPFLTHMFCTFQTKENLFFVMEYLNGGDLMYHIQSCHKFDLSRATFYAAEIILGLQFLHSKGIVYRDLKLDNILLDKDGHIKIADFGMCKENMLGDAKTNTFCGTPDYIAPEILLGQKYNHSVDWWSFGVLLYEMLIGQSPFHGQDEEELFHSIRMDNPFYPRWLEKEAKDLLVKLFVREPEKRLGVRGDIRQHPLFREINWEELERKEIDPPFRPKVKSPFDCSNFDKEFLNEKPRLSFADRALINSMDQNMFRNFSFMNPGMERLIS

The assay concerns the target PKCθ (Homo sapiens, UniProt Q04759). Kind of assay: PKCθ enzyme data at 1 mM ATP. It is filed as biochemical.
As usually defined, the IC50 is the point on the concentration scale where inhibition reaches its midpoint. Lower therefore signals higher potency. With `CN1CCN(c2nc(C3=C(c4c[nH]c5sccc45)C(=O)NC3=O)c3c(O)cccc3n2)CC1` [F.4.12], the IC50 fell in the range of 500 to 1000 nM.

Take `CN(C)CC1CCN(c2nc(C3=C(c4c[nH]c5sccc45)C(=O)NC3=O)c3ccccc3n2)C1` (stereo not drawn) [E.1.28]: the half-inhibitory concentration (IC50) was in the range of 100 to 500 nM. Consider `CN(C)CCCCn1nc(C2=C(c3c[nH]c4sccc34)C(=O)NC2=O)c2ccccc21` [F.4.27], for which the IC50 was in the range of 500 to 1000 nM. Next, `CN1CCN(c2nc(C3=C(c4c[nH]c5sccc45)C(=O)NC3=O)c3cccn3n2)CC1` [F.4.36]: < 100 nM; `CN1CCCC(Cn2nc(C3=C(c4c[nH]c5sccc45)C(=O)NC3=O)c3ccccc32)C1` (stereo not drawn) [F.4.28]: 100 to 500 nM. Next, `CN1CC2CCN(c3nc(C4=C(c5c[nH]c6sccc56)C(=O)NC4=O)c4ccccc4n3)CC2C1` (stereo not drawn) [E.1.39]: < 100 nM.

For the compound `O=C1NC(=O)C(c2c[nH]c3ccsc23)=C1c1nc(N2CCN3CCC[C@@H]3C2)nc2ccccc12` [E.2.1, (R)-3-(2-(Hexahydropyrrolo[1,2-a]pyrazin-2(1H)-yl)quinazolin-4-yl)-4-(4H-thieno[3,2-b]pyrrol-6-yl)-1H-pyrrole-2,5-dione], the IC50 was < 100 nM. Next, `O=C1NC(=O)C(c2c[nH]c3ccsc23)=C1c1nc(N2CCC3(CCCNC3)C2)nc2ccccc12` (stereo not drawn) [G.1.6]: 100 to 500 nM; `CN1CCN(c2nc(C3=C(c4c[nH]c5sccc45)C(=O)NC3=O)c3ncccc3n2)CC1` [F.4.25]: 100 to 500 nM; `CN(C)C1(C)CCN(c2nc(C3=C(c4c[nH]c5sccc45)C(=O)NC3=O)c3ccccc3n2)CC1` [E.1.41]: 100 to 500 nM. With `CN1CCN(c2nc(C3=C(c4c[nH]c5ccsc45)C(=O)NC3=O)c3ccc(F)cc3n2)CC1` [F.3.5], the concentration for half-maximal inhibition (IC50) was < 100 nM. To `CN1CCC(n2nc(C3=C(c4c[nH]c5sccc45)C(=O)NC3=O)c3ccccc32)CC1` [F.4.7] belongs 100 to 500 nM; to `Cc1cc2c(C3=C(c4nc(N5CCN(C)CC5)nc5ccccc45)C(=O)NC3=O)c[nH]c2s1` [F.1.3], 100 to 500 nM. To `CCC1(N)CCN(c2nc(C3=C(c4c[nH]c5sccc45)C(=O)NC3=O)c3ccccc3n2)CC1` [E.1.43] belongs < 100 nM; to `CN1CCN(c2nc(C3=C(c4c[nH]c5sccc45)C(=O)NC3=O)c3sccc3n2)CC1` [F.4.9], < 100 nM. To `O=C1NC(=O)C(c2c[nH]c3sccc23)=C1c1nc(N2CCn3cnc(CO)c3C2)nc2ccccc12` [E.1.50] belongs < 100 nM; to `O=C1NC(=O)C(c2c[nH]c3ccsc23)=C1c1nc(N2CC3CNCC3C2)nc2ccccc12` (stereo not drawn) [G.1.3], 500 to 1000 nM. For the compound `CN1CCC(Cc2cn(C3=C(c4c[nH]c5sccc45)C(=O)NC3=O)c3ccccc23)CC1` [F.4.37], the IC50 was < 100 nM. Next, `O=C1NC(=O)C(c2c[nH]c3sccc23)=C1c1nc(N2CCNCC2)nc2ccccc12` [G.1.5]: < 100 nM; `O=C1NC(=O)C(c2c[nH]c3sccc23)=C1c1nc(N2CCN3CCCC3C2)nc2ccccc12` (stereo not drawn) [F.2.1]: < 100 nM.

In turn, `O=C1CN(c2nc(C3=C(c4c[nH]c5sccc45)C(=O)NC3=O)c3ccccc3n2)CCN1` [E.1.7] returned an IC50 of 500 to 1000 nM. To `O=C1NC(=O)C(c2c[nH]c3sccc23)=C1c1nc(N2CCn3c(cnc3CO)C2)nc2ccccc12` [E.1.48] belongs < 100 nM. As for `CN(C)CC1CCn2c(c(C3=C(c4c[nH]c5sccc45)C(=O)NC3=O)c3ccccc32)C1` (stereo not drawn) [Example #2, 3-(8-((Dimethylamino)methyl)-6,7,8,9-tetrahydropyrido[1,2-a]indol-10-yl)-4-(6H-thieno[2,3-b]pyrrol-4-yl)-1H-pyrrole-2,5-dione], the IC50 is < 100 nM. Take `CN1CCN(c2nc(C3=C(c4c[nH]c5sccc45)C(=O)NC3=O)c3cc(Cl)ccc3n2)CC1` [F.4.13]: the IC50 is < 100 nM. To `O=C1NC(=O)C(c2c[nH]c3sccc23)=C1c1nc(N2CCN(C3CC3)CC2)nc2ccccc12` [E.1.18] belongs < 100 nM. For the compound `CN1CCC(Cn2nc(C3=C(c4c[nH]c5sccc45)C(=O)NC3=O)c3ccccc32)CC1` [F.4.6], the IC50 was < 100 nM. To `O=C1NC(=O)C(c2nn(CC3CCN(CCF)CC3)c3ccccc23)=C1c1c[nH]c2sccc12` [F.4.20] belongs 100 to 500 nM; to `O=C1NC(=O)C(c2c[nH]c3sccc23)=C1c1nc(N2CCC(N3CCC3)CC2)nc2ccccc12` [E.1.13], < 100 nM; to `CC(C)(CO)N1CCN(c2nc(C3=C(c4c[nH]c5sccc45)C(=O)NC3=O)c3ccccc3n2)CC1` [E.1.56], < 100 nM. Next, `COCCN1CCC(Cn2nc(C3=C(c4c[nH]c5sccc45)C(=O)NC3=O)c3ccccc32)CC1` [F.4.21]: 100 to 500 nM.

For `O=C1NC(=O)C(c2c[nH]c3ccsc23)=C1c1nc(N2CCN3CCCC3C2)nc2ccccc12` (stereo not drawn) [E.2.10], the IC50 was < 100 nM.

On to `O=C1NC(=O)C(c2c[nH]c3sccc23)=C1c1nc(N2CCC(CN3CCC3)CC2)nc2ccccc12` [E.1.17], for which the 50% inhibitory concentration (IC50) was < 100 nM. Next, `CC(C1CCN(c2nc(C3=C(c4c[nH]c5sccc45)C(=O)NC3=O)c3ccccc3n2)CC1)N1CCCC1` (stereo not drawn) [E.1.4]: 500 to 1000 nM. To `CN1CCN(c2nc(C3=C(c4c[nH]c5sccc45)C(=O)NC3=O)c3ccccc3n2)CC1` [F.1.1, 3-(2-(4-Methylpiperazin-1-yl)quinazolin-4-yl)-4-(6H-thieno[2,3-b]pyrrol-4-yl)-1H-pyrrole-2,5-dione] belongs < 100 nM. Next, `O=C1NC(=O)C(c2c[nH]c3sccc23)=C1c1nc(N2CC[C@H](N3CCCC3)[C@@H](F)C2)nc2ccccc12` [E.1.30]: < 100 nM; `O=C1NC(=O)C(c2nn(C[C@H]3CCNC[C@H]3F)c3ccccc23)=C1c1c[nH]c2sccc12` (relative stereo) [G.1.17]: < 100 nM. Take `CC(C1CCN(c2nc(C3=C(c4c[nH]c5sccc45)C(=O)NC3=O)c3ccccc3n2)CC1)N(C)C` (stereo not drawn) [E.1.12]: the concentration for half-maximal inhibition (IC50) lay within 100 to 500 nM.

Regarding `NC(=O)C1CCN(c2nc(C3=C(c4c[nH]c5sccc45)C(=O)NC3=O)c3ccccc3n2)CC1` [E.1.14], the IC50 was 500 to 1000 nM. To `O=C1NC(=O)C(c2c[nH]c3ccsc23)=C1c1nc(N2CCC(N3CCCC3)CC2)nc2ccccc12` [E.2.6] belongs < 100 nM; to `CN1CCN(c2nc(C3=C(c4c[nH]c5sccc45)C(=O)NC3=O)c3ccncc3n2)CC1` [F.4.24], < 100 nM. Regarding `CCc1ncc2n1CCN(c1nc(C3=C(c4c[nH]c5sccc45)C(=O)NC3=O)c3ccccc3n1)C2` [E.1.47], the IC50 was < 100 nM. For the compound `CN1CCN(c2nc(C3=C(c4c[nH]c5ccsc45)C(=O)NC3=O)c3ccsc3n2)CC1` [F.3.4], the IC50 is < 100 nM. `O=C1NC(=O)C(c2c[nH]c3ccsc23)=C1c1nc(N2CCn3cnnc3C2)nc2ccccc12` [E.2.8] showed an IC50 of 100 to 500 nM. Next, `O=C1NC(=O)C(c2nn(C3CCNCC3)c3ccccc23)=C1c1c[nH]c2sccc12` [G.1.11]: 100 to 500 nM; `CN1CCN(c2nccc(C3=C(c4c[nH]c5sccc45)C(=O)NC3=O)n2)CC1` [F.4.8]: 500 to 1000 nM. As to `CN1CCC(Cc2nc(C3=C(c4c[nH]c5sccc45)C(=O)NC3=O)c3ccccn23)CC1` [F.4.33], the IC50 was 500 to 1000 nM. `O=C1NC(=O)C(c2c[nH]c3ccsc23)=C1c1nc(NCC2CCCCN2)nc2ccccc12` (stereo not drawn) [G.1.9] displayed an IC50 of 500 to 1000 nM. Next, `CC(C)(O)c1ncc2n1CCN(c1nc(C3=C(c4c[nH]c5sccc45)C(=O)NC3=O)c3ccccc3n1)C2` [E.1.49]: 100 to 500 nM.
